Test results from patent US20190038756A1, “COMPOSITIONS INCLUDING BENZENESULFONAMIDE-CONTAINING NON-STEROIDAL ANTI-INFLAMMATORY DRUGS, SILK FIBROIN, AND A GELLING AGENT AND USES THEREOF” (Cocoon Biotech Inc., priority 2016, published 2019).
Converted amounts (≈) assume the structure as drawn. Structures can show the parent of a compound that is named as a salt. Where two headings read alike, the source gives them in different places. Each block holds one compound with its values, some of them ahead of it.

Key:
[1] = Gelation of silk fibroin hydrogels with varying gelling agents (25° C., 37° C., autoclave); format: physicochemical
[2] = Solubility of celecoxib in release media; format: physicochemical; conditions: release medium (phosphate buffered saline with Tween-80), aqueous with cosolvent or surfactant or cyclodextrin; 1× phosphate buffered saline, 2% (v/v) Tween-80, 0.05% sodium azide
[3] = oral NOAEL dose 20 mg/kg, cited from earlier work
[4] = AUC at NOAEL oral dose from oral Celecoxib NDA package; conditions: in vivo, oral NOAEL dose 20 mg/kg, read-out: Extrapolated AUC for 25 days
[5] = In vitro release study of NSAIDs from silk-PEG hydrogels (UV detection); format: physicochemical; conditions: for time within which celecoxib was released / sustained release (e.g., greater than one week) using a silk-fibroin hydrogel delivery platform: silk-fibroin hydrogel; for time within which celecoxib was released: 6.5% (w/v) fibroin (FIG. 5); for release of free drug without encapsulation in silk-fibroin hydrogels: no hydrogel
Procedure: Lyophilized silk was dissolved with ultrapure water to obtain concentrations of 1.3, 3.6, 7.0, 13.0, and 23.0% (w/v). Polyethylene glycol (PEG) with molecular weights of 300 and 400 Da (PEG300 and PEG400) was diluted with ultrapure water when necessary. Celecoxib (a benzenesulfonamide-containing NSAID) and other NSAIDs which are not benzenesulfonamide-containing NSAIDs (tenoxicam, meloxicam, and lomoxicam) were dissolved with 80% (v/v) PEG400 solution to obtain low concentration solutions (<40 mg/mL) or with 100% (v/v) PEG300 to obtain high concentration solutions (>100 mg/mL). Diclofenac sodium salt (another NSAID that is not a benzenesulfonamide-containing NSAID) was dissolved in the aqueous silk solution.
The PEG or PEG/drug solution was mixed with silk solution by pipetting up and down gently and aliquoted into a 2-mL Eppendorf tube. Each tube was left at 37° C. to gel overnight (Wang et al., Acta Biomater. 12:51-61, 2015).
To the 2-mL Eppendorf tube containing fibroin-drug hydrogel, 1.95 mL of release medium was added. The release medium contained 1× phosphate buffer, pH 7.4, 0.1% (v/v) Tween-80, and 0.02% (w/v) sodium azide. The samples were incubated at 37° C. with gentle shaking. The release medium was changed after 24 hours and then approximately once every 3 days. The release medium was subjected to UV detection using a UV transparent bottom plate (Corning) at the respective wavelengths listed in Table 8. Control release medium was measured under the same condition for background subtraction. A calibration curve was generated for each drug by dissolving a known amount of each drug in the release medium, and making dilutions with the release medium.

[6] = system: TNF-α in human whole blood; assay: Human whole blood activation: TNF-α by ELISA after 24 hours at 37° C., with or without LPS; format: cell-based
Excerpt: Acute inflammatory responses are initiated via activation of a mammal's innate immune system. Human whole blood contains the principle repertoire of immune cells responsible for initiating an innate driven inflammatory response. Activation of inflammation in human whole blood is a useful in vitro assay for assessing the inflammatory potential of silk-fibroin hydrogel constituents. For this reason, whole human blood was exposed to silk fibroin solutions, three dimensional silk fibroin hydrogels, and a variety of different gelling agents for 24 hours at 37° C. and assessed for activation of inflammation.
Lipopolysaccharide (LPS) was used as a positive stimulator of the inflammatory marker TNF-α, in whole blood. Experiments to assess the inflammatory potential of formulation constituents were conducted both in the absence and the presence of lipopolysaccharide (LPS). The later condition to assess whether any formulation constituent had the activity of potentiating a known inflammatory signal. In each experiment, plasma was collected at the end of the incubation period and analyzed for TNF-α via enzyme-linked immunosorbent assay (ELISA).

[7] = absence of celecoxib, RT curing
[8] = absence of celecoxib, autoclaving

Compound: silk fibroin: soluble silk fibroin samples isolated using several different degumming techniques
Inflammatory signal (TNF-α) in human whole blood ([6]; absence of co-added LPS, 24 hours at 37° C.): did not exhibit inflammatory signals beyond low baseline responses | TNF-α response in human whole blood ([6]; presence of LPS, 24 hours at 37° C.): generally reduced compared to the response to LPS alone

Compound: Glycerol formal
Minimum gelling agent concentration eliciting gelation [1, 7]: 40 % (v/v) | Minimum gelling agent concentration eliciting gelation [1, 8]: 20 % (v/v)

Compound: O=C(O)Cc1ccccc1Nc1c(Cl)cccc1Cl [Diclofenac sodium salt]
time within which drug was completely released ([5]; from all the tested silk-fibroin hydrogels (FIGS. 2-4), 37° C., phosphate buffer pH 7.4, 0.1% Tween-80): ≤ 4 days | release of free drug without encapsulation in silk-fibroin hydrogels [5]: released within one day | sustained release (e.g., greater than one week) using a silk-fibroin hydrogel delivery platform [5]: could not be achieved

Compound: CN1C(C(=O)Nc2ccccn2)=C(O)c2sc(Cl)cc2S1(=O)=O [Lomoxicam, lomoxicam]
day at which cumulative release plateaued ([5]; drug with no fibroin (FIG. 1)): 2 days | day at which cumulative release plateaued ([5]; from silk-fibroin hydrogels, all tested formulations (FIG. 1), 37° C., phosphate buffer pH 7.4, 0.1% Tween-80): 6 days | release of free drug without encapsulation in silk-fibroin hydrogels [5]: released within one day | sustained release (e.g., greater than one week) using a silk-fibroin hydrogel delivery platform [5]: could not be achieved

Now from value to compound, other results behind:

Minimum gelling agent concentration eliciting gelation ([1]; 87 mg/mL celecoxib, curing temperature 37° C.): 40 % (v/v) | Minimum gelling agent concentration eliciting gelation ([1]; absence of celecoxib, 37° C.): 40 % (v/v) | Minimum gelling agent concentration eliciting gelation [1, 7]: 50 % (v/v) | Minimum gelling agent concentration eliciting gelation [1, 8]: 30 % (v/v)
Compound: OCC(O)CO [glycerol]

solubility [2]: 850 µg/mL (≈ 2230 µM) | extended time period of celecoxib release ([5]; all hydrogels of FIG. 7): ≤ 56 days | duration of sustained celecoxib release ([5]; fibroin concentrations in the hydrogel […] (w/v) to 6.5% (w/v)): sustained over two months | period over which celecoxib release occurs ([5]; hydrogel fibroin concentration 0.65% (w/v) (FIG. 6)): 15 days | period over which celecoxib release occurs ([5]; hydrogel fibroin concentration 1.3% (w/v) (FIG. 6)): 30 days | period over which celecoxib release occurs ([5]; hydrogel fibroin concentration 12.5% (w/v) (FIG. 6)): 41 days | period over which celecoxib release occurs ([5]; hydrogel fibroin concentration […] (w/v) (FIG. 6)): 41 days | period over which celecoxib release occurs ([5]; no fibroin/“free” celecoxib sample (0% silk-fibroin) (FIG. 6)): 6 days | time within which celecoxib was released ([5]; celecoxib 0.09375% (w/v)): ≤ 30 days | time within which celecoxib was released ([5]; celecoxib 0.1875% (w/v)): ≤ 30 days | time within which celecoxib was released ([5]; celecoxib 0.375% (w/v)): ≤ 75 days | duration of slow release of celecoxib at ˜40 μg a day ([5]; silk-fibroin hydrogels): more than 75 days | slow release rate of celecoxib from silk-fibroin hydrogels ([5]; silk-fibroin hydrogels): ~40 μg a day
Compound: Cc1ccc(-c2cc(C(F)(F)F)nn2-c2ccc(S(N)(=O)=O)cc2)cc1 [Celecoxib, 4-[5-(4-methylphenyl)-3-(trifluoromethyl)pyrazol-1-yl]benzenesulfonamide]
AUC at Day 1 ([3]; Female (F)): 39.1 µg·h/mL | AUC at Day 1 ([3]; Male (M)): 18.7 µg·h/mL | AUC ([4]; Female (F)): 978 µg·h/mL | AUC ([4]; Male (M)): 468 µg·h/mL

Minimum gelling agent concentration eliciting gelation ([1]; 87 mg/mL celecoxib, RT): 30 % (v/v) | Minimum gelling agent concentration eliciting gelation ([1]; 87 mg/mL celecoxib, autoclave): 10 % (v/v) | Minimum gelling agent concentration eliciting gelation [1, 7]: 40 % (v/v) | Minimum gelling agent concentration eliciting gelation [1, 8]: 20 % (v/v)
Compound: CC(O)CO (stereo not drawn) [Propylene glycol]

Inflammatory potential (TNF-α) in human whole blood ([6]; +/−LPS, relevant concentrations): non-inflammatory | Gelling agent concentration at which a hydrogel formed ([1]; absence of celecoxib, 37° C.): 30 % (w/v) | Gelling agent concentration at which a hydrogel formed ([1]; absence of celecoxib, RT): 30 % (w/v)
Compound: OC[C@@H](O)[C@@H](O)[C@H](O)[C@@H](O)CO [sorbitol]
